Test results from USRE38257E1, “Piperdine derivatives and hypotensives containing the same” (Ajinomoto Co., Inc., priority 1988, dated 2003).

System: male spontaneously hypertensive rats
Test: Decrease in systolic blood pressure in spontaneously hypertensive rats after intravenous bolus injection, indirect (tail-cuff) method
Type: in vivo, rat
Settings: for Decrease in systolic blood pressure (mmHg) time after administration (hour) 0.5: 0.5 hour after administration; for Decrease in systolic blood pressure (mmHg) time after administration (hour) 4: 4 hours after administration
Experimental: As test animals, four male spontaneously hypertensive rats (weight 400 to 440 g) that were sufficiently adapted for feeding and in which hypertension was confirmed were used.
Physiological saline aqueous solution containing 2.5% Nicolle and 2.5% ethanol of sample was intravenously administered by bolus injection at a dose of 1 ml per 1 kg of body weight. Systolic blood pressure after administration was measured by the indirect (tail-cuff) method.

Compound	Decrease in systolic blood pressure (mmHg) time after administration (hour) 0.5 (dose 10 mg/kg i.v. bolus) [mmHg]	Decrease in systolic blood pressure (mmHg) time after administration (hour) 4 (dose 10 mg/kg i.v. bolus) [mmHg]	also measured
C1=Cc2ccccc2C(=C2CCN(CCCCCCc3ccccc3)CC2)c2ccccc21.Cl [Example 17, 6-(4-(5H-Dibenzo[a,d]cyclohepten-5-ylidene)-1-piperidinyl)-1-phenylhexane hydrochloride]	−84	−16	–
C1=Cc2ccccc2C(=C2CCN(CCCOc3ccccc3)CC2)c2ccccc21.Cl [Example 20, 3-(4-(5H-Dibenzo[a,d]cyclohepten-5-ylidene)-1-piperidinyl)-1-phenoxypropane hydrochloride]	−37	2	–
C1=Cc2ccccc2C(=C2CCN(CCCSc3ccccc3)CC2)c2ccccc21.Cl [Example 23, 3-(4-(5H-Dibenzo[a,d]cyclohepten-5-ylidene)-1-piperidinyl)-1-phenylthiopropane hydrochloride]	−34	10	–
Cl.O=[N+]([O-])c1ccccc1S(=O)(=O)NCCN1CCC(=C2c3ccccc3C=Cc3ccccc32)CC1 [Example 25, 4-(5H-Dibenzo[a,d]cyclohepten-5-ylidene)-1-(2-(2-nitrobenzenesulfonyl)aminoethyl)piperidine hydrochloride]	−8	−7	–
Cl.O=c1[nH]c2ccccc2c(=O)n1CCN1CCC(=C2c3ccccc3C=Cc3ccccc32)CC1 [Example 28]	−52	4	–
COc1ccc(C(C#N)(CCCN2CCC(=C3c4ccccc4C=Cc4ccccc43)CC2)C(C)C)cc1OC.Cl (stereo not shown) [Example 31, 5-(4-(5H-Dibenzo[a,d]cyclohepten-5-ylidene)-1-piperidinyl)-2-(3,4-dimethoxyphenyl)-2-isopropylvaleronitrile hydrochloride]	−61	−11	–
Cl.O=C(C=Cc1ccccc1)Nc1ccccc1SCCCN1CCC(=C2c3ccccc3C=Cc3ccccc32)CC1 [Example 37, 1-(3-(2-Cinnamoylaminophenylthio)-1-propyl)-4-(5H-dibenzo[a,d]-cyclohepten-5-ylidene)piperidine hydrochloride]	−78	−36	–
C(=Cc1ccccc1)CN1CCC(=C2c3ccccc3C=Cc3ccccc32)CC1.Cl [Example 38, 1-Cinnamyl-4-(5H-dibenzo[a, d]cyclohepten-5-ylidene)piperidine hydrochloride]	−140	−76	–
CC(C)C(C#N)(CCCN1CCC(=C2c3ccccc3C=Cc3ccccc32)CC1)c1ccc(Cl)c(Cl)c1.Cl (stereo not shown) [Example 42, 5-(4-(5H-Dibenzo[a,d]cyclohepten-5-ylidene)-1-piperidinyl)-2-(3,4-dichlorophenyl)-2-isopropylvaleronitrile hydrochloride]	−66	−14	–
Cl.N#CC(CCCCl)(CCCN1CCC(=C2c3ccccc3C=Cc3ccccc32)CC1)c1ccccc1 (stereo not shown) [Example 52, 2-(3-Chloropropyl)-5-(4-(5H-dibenzo[a,d]cyclohepten-5-ylidene)-1-piperidinyl)-2-phenylvaleronitrile hydrochloride]	−23	−9	–
Cl.N#CC(CCCN1CCC(=C2c3ccccc3C=Cc3ccccc32)CC1)c1cccc(C(F)(F)F)c1 (stereo not shown) [Example 59, 5-(4-(5H-Dibenzo[a,d]cyclohepten-5-ylidene)-1-piperidinyl)-2-(3-trifluoromethylphenyl)valeronitrile hydrochloride]	−87	−21	–
CC(C)C(C#N)(CCCN1CCC(=C2c3ccccc3C=Cc3ccccc32)CC1)c1cccc(C(F)(F)F)c1.Cl (stereo not shown) [Example 60, 5-(4-(5H-Dibenzo[a,d]cyclohepten-5-ylidene)-1-piperidinyl)-2-isopropyl-2-(3-trifluoromethylphenyl)valeronitrile hydrochloride]	−121	−48	–
CC(CC(=O)c1ccccc1)N1CCC(=C2c3ccccc3C=Cc3ccccc32)CC1.Cl (stereo not shown) [Example 100, 3-(4-(5H-Dibenzo[a,d]cyclohepten-5-ylidene)-1-piperidinyl)butyrophenone hydrochloride]	−35	−5	–
Cl.OC(CCCN1CCC(=C2c3ccccc3C=Cc3ccccc32)CC1)c1ccccc1 (stereo not shown) [Example 101, 4-(4-(5H-Dibenzo[a,d]cyclohepten-5-ylidene)-1-piperidinyl)-1-hydroxy-1-phenylbutane hydrochloride]	−89	−14	–
Cl.OC(CCN1CCC(=C2c3ccccc3C=Cc3ccccc32)CC1)c1ccc(F)cc1 (stereo not shown) [Example 107, 3-(4-(5H-Dibenzo[a,d]cyclohepten-5-ylidene)-1-piperidinyl)-1-hydroxy-1-(4-fluorophenyl)propane hydrochloride]	−88	−11	–
Cl.OC(CCCN1CCC(=C2c3ccccc3C=Cc3ccccc32)CC1)c1ccc(F)cc1 (stereo not shown) [Example 108, 4-(4-(5H-Dibenzo[a,d]cyclohepten-5-ylidene)-1-piperidinyl)-1-hydroxy-1-(4-fluorophenyl)butane hydrochloride]	−126	−50	–
Cl.Fc1ccccc1CN1CCC(=C2c3ccccc3C=Cc3ccccc32)CC1 [Example 111, 4-(5H-Dibenzo[a,d]cyclohepten-5-ylidene)-1-(2-fluorobenzyl)piperidine hydrochloride]	−98	−13	–
Cl.Fc1cccc(CN2CCC(=C3c4ccccc4C=Cc4ccccc43)CC2)c1 [Example 112, 4-(5H-Dibenzo[a,d]cyclohepten-5-ylidene)-1-(3-fluorobenzyl)piperidine hydrochloride]	−16	0	–
Cl.Fc1ccc(CN2CCC(=C3c4ccccc4C=Cc4ccccc43)CC2)cc1 [Example 113, 4-(5H-Dibenzo[a,d]cyclohepten-5-ylidene)-1-(4-fluorobenzyl)piperidine hydrochloride]	–	–	Decrease in systolic blood pressure (mmHg) time after administration (hour) 0.5 (dose 1 mg/kg i.v. bolus): −151 mmHg; Decrease in systolic blood pressure (mmHg) time after administration (hour) 4 (dose 1 mg/kg i.v. bolus): −81 mmHg
Cl.FC(F)(F)c1cccc(CN2CCC(=C3c4ccccc4C=Cc4ccccc43)CC2)c1 [Example 115, 4-(5H-Dibenzo[a,d]cyclohepten-5-ylidene)-1-(3-trifluoromethylbenzyl)piperidine hydrochloride]	−53	−19	–
COc1ccccc1CN1CCC(=C2c3ccccc3C=Cc3ccccc32)CC1.Cl [Example 117, 4-(5H-Dibenzo[a,d]cyclohepten-5-ylidene)-1-(2-methoxybenzyl)piperidine hydrochloride]	−143	−25	–
COc1cccc(CN2CCC(=C3c4ccccc4C=Cc4ccccc43)CC2)c1.Cl [Example 118, 4-(5H-Dibenzo[a,d]cyclohepten-5-ylidene)-1-(3-methoxybenzyl)piperidine hydrochloride]	−129	−24	–
COc1ccc(CN2CCC(=C3c4ccccc4C=Cc4ccccc43)CC2)cc1.Cl [Example 119, 4-(5H-Dibenzo[a,d]cyclohepten-5-ylidene)-1-(4-methoxybenzyl)piperidine hydrochloride]	−34	−5	–
Cl.Fc1c(F)c(F)c(CN2CCC(=C3c4ccccc4C=Cc4ccccc43)CC2)c(F)c1F [Example 120, 4-(5H-Dibenzo[a,d]cyclohepten-5-ylidene)-1-pentafluorobenzylpiperidine hydrochloride]	–	–	Decrease in systolic blood pressure (mmHg) time after administration (hour) 0.5 (dose 3 mg/kg i.v. bolus): −17 mmHg; Decrease in systolic blood pressure (mmHg) time after administration (hour) 4 (dose 3 mg/kg i.v. bolus): −12 mmHg
Cl.Fc1ccc(C2(CCCN3CCC(=C4c5ccccc5C=Cc5ccccc54)CC3)OCCO2)cc1 [Example 124]	−90	−20	–
Cl.O=C(CCCN1CCC(=C2c3ccccc3C=Cc3ccccc32)CC1)c1ccc(F)cc1 [Example 125, 4-(4-(5H-Dibenzo[a,d]cyclohepten-5-ylidene)-1-piperidinyl)-4′-fluorobutyrophenone hydrochloride]	−93	−14	–
